Measured values published in publication PMC9665079, “Structure-activity exploration of a small-molecule allosteric inhibitor of T790M/L858R double mutant EGFR” (Journal of Enzyme Inhibition and Medicinal Chemistry, 2022).

Tests used:
[1] = target: T1, EGFR(T790M/L858R) (Homo sapiens, UniProt P00533, L858R/T790M); assay: In vitro non-radioactive kinase assay, EGFR(T790M/L858R) Kinase Assay Kit (BPS Bioscience); assay type: biochemical; conditions: for IC50: EGFR(T790M/L858R) Kinase Assay Kit, concentration inhibiting 50% enzyme activity, read-out: IC50 (μM) ± Std. Dev.; for Activity on mutant EGFR in kinase assay (in words): compared with compound 4, five independent experiments
T1 construct: purchased BPS Bioscience 40322
Experimental: In vitro kinase assays were performed using the EGFR(T790M/L858R) Kinase Assay Kit (BPS
Bioscience, Cat. #40322) in the presenc e of compounds or vehicle . Assays conditions were set
according to the manufacturer’s instructions. Dose -response curves were fitted by non -linear
regression of normalized enzyme activity vs log[inhibitor] data, using GraphPad Prism software. […]

[2] = test system: H1975 lung cancer cell line expressing the double mutant L858R/T790M EGFR; assay: Cell proliferation / viability by MTS assay in H1975 cells; assay type: cell-based; conditions: 72 hours, micromolar concentrations
Experimental: Compounds 15 and 18 were then tested in cell proliferation assays on the H1975 lung cancer cell line expressing the double mutant L858R/T790M EGFR.
(§1) Figure 3. Activity of compounds 15 and 18 in H1975 cells. (A) Cell viability was measured by MTS assay. (B) EGFR phosphorylation was assessed by Western blot after 8-h incubation with the compounds (10 µM). Total EGFR and actin are shown for loading control. […]
(§2) 3-nitroaniline 1a (119 mg); 4-fluoro-3-(iminomethyl)phenyl acetate 2h (181 mg); 5-fluoro-2-methyl-1H-indole 3b (149 mg); purification: procedur b, […]
In vitro kinase assays were performed using the EGFR(T790M/L858R) Kinase Assay Kit (BPS Bioscience, Cat. #40322) in the presenc e of compounds or vehicle . Assays conditions were set according to the manufacturer’s instructions. […]
(§3) For cytotoxicity assays, compounds were added to cells in 96-well plates for 72 hours. Cell viability was measured by MTS assay using the CellTiter 96® AQueous One Solution Cell Proliferation Assay System (Promega, Madison, WI, USA) according to instructions. Inhibition of EGFR was assessed by Western blotting after incubating the cells with the compounds for 8 hours. […]
(§4) Chemiluminescence was detected using a ChemiDoc XRS+ System (Bio-Rad, Hercules, CA, USA) and Image Lab software (Bio-Rad). […]

[3] = test system: phospho-EGFR (Tyr1068) in H1975 cells; assay: EGFR phosphorylation by Western blot in H1975 cells; assay type: cell-based; conditions: Western blot after 8-h incubation, 10 µM
Experimental: as §1, §2
In vitro kinase assays were performed using the EGFR(T790M/L858R) Kinase Assay Kit (BPS Bioscience, Cat. #40322) in the presenc e of compounds or vehicle . Assays conditions were set according to the manufacturer’s instructions. Dose -response curves were fitted by non -linear regression of normalized enzyme activity vs log[inhibitor] data, using GraphPad Prism software.
as §3, §4

[4] = test system: wt EGFR H1299 cell line; parameters: method as in PMID 29766737; conditions: read-out: IC50 anti-proliferative activity; cited from earlier work
[5] = test system: double mutant H1975 cell line; parameters: method as in PMID 29766737; conditions: read-out: IC50 anti-proliferative activity; cited from earlier work
[6] = test system: mutant EGFR H1650 cell line; parameters: method as in PMID 29766737; conditions: read-out: IC50 anti-proliferative activity; cited from earlier work
[7] = test system: T790M/L858R double mutant EGFR; parameters: method as in PMID 29766737; conditions: type III allosteric inhibitor of T790M/L858R double mutant EGFR; cited from earlier work

Row | IC50 [1] | SMILES | Activity on mutant EGFR in kinase assay (in words) [1] | other results
1 | 63 ± 12 µM | Cc1[nH]c2ccccc2c1C(Nc1cccc([N+](=O)[O-])c1)c1cc(F)ccc1O (stereo not shown) [Compound 17] |  | 
2 | 33 ± 4 µM | Cc1[nH]c2ccccc2c1C(Nc1cccc([N+](=O)[O-])c1)c1ccccc1O (stereo not shown) [Compound 15] | significantly improved activity with respect to 4 | Inhibition of cell proliferation (in words) [2]: inhibited cell proliferation; Inhibition of EGFR phosphorylation (in words) [3]: inhibited
3 | 27 ± 5 µM | Cc1[nH]c2ccccc2c1C(Nc1cccc([N+](=O)[O-])c1)c1cc(O)ccc1F (stereo not shown) [Compound 18] | significantly improved activity with respect to 4 | Inhibition of cell proliferation (in words) [2]: inhibited cell proliferation; Inhibition of EGFR phosphorylation (in words) [3]: inhibited

More lines, now with the values behind:

Row | SMILES | IC50 [1] | Activity on mutant EGFR in kinase assay (in words) [1] | other results
4 | COc1ccc(F)cc1C(Nc1cccc([N+](=O)[O-])c1)c1c(C)[nH]c2ccccc12 (stereo not shown) [Compound 14] |  | lack of activity | 
5 | Cc1[nH]c2ccccc2c1C(Nc1cccc([N+](=O)[O-])c1)c1ccccc1 (stereo not shown) [Compound 13] |  | lack of activity | 
6 | O=[N+]([O-])c1cccc(NC(c2ccccn2)c2c[nH]c3ccccc23)c1 (stereo not shown) [Compound 8] | 95 ± 31 µM |  | 
7 | Cc1[nH]c2ccccc2c1C(Nc1cccc([N+](=O)[O-])c1)c1ncccc1O (stereo not shown) [Compound 12] | 96 ± 30 µM |  | 
8 | Cc1[nH]c2ccc(F)cc2c1C(Nc1cccc([N+](=O)[O-])c1)c1ccccn1 (stereo not shown) [Compound 7] | 123 ± 17 µM |  | 
9 | Cc1[nH]c2ccccc2c1C(Nc1cccc([N+](=O)[O-])c1)c1ccccn1 (stereo not shown) [Compound 4] | 154 ± 11 µM |  | IC50 [4]: 14.5 ± 0.3 µM; IC50 [5]: 24 ± 2 µM; IC50 [6]: 19 ± 2 µM; EC50 [7]: 6.2 ± 0.5 µM
